Assay results reported in US20230406831A1, “COMPOUNDS AND METHODS OF INHIBITING BACTERIAL CHAPERONIN SYSTEMS” (THE TRUSTEES OF INDIANA UNIVERSITY, priority 2020, published 2023).
Like-named read-outs stand apart in the source and are kept apart here.

Experiments:
GroEL/ES = molecular target: T1, GroEL/ES (Escherichia coli, UniProt P0A6F5); test: GroEL/ES-mediated dMDH refolding assay; assay type: biochemical, E. coli
T1 construct: made in house; host or cells: GroEL in E. coli DH5a; GroES in E. coli BL21 (DE3)
Description: (§1) Evaluation of compounds ability to inhibit GroEL/ES and HSP60/10-mediated dMDH refolding assays.
(§2) Reagent preparation: For these assays, four primary reagent stocks were prepared: 1) GroEL/ES-dMDH or HSP60/10-dMDH binary complex stock; 2) ATP initiation stock; 3) EDTA quench stock; 4) MDH enzymatic assay stock. Denatured MDH (dMDH) was prepared by 2-fold dilution of MDH (5 mg/ml, soluble pig heart MDH from Roche, product #10127248001) with denaturant buffer (7 M guanidine-HCl, 200 mM Tris, pH 7.4, and 50 mM DTT). MDH was completely denatured by incubating at room temperature for 45 min. The binary complex solutions were prepared by slowly adding the dMDH stock to a stirring stock with GroEL (or HSP60) in folding buffer (50 mM Tris-HCl, pH 7.4, 50 mM KCl, 10 mM MglC2, and 1 mM DTT), followed by addition of GroES (or HSP10). The binary complex stocks were prepared immediately prior to dispensing into the assay plates and had final protein concentrations of 83.3 nM GroEL (Mr 800 kDa) or HSP60 (Mr 400 kDa), 100 nM GroES or HSP10 (Mr 70 kDa), and 20 nM dMDH in folding buffer. For the ATP initiation stock, ATP solid was diluted into folding buffer to a final concentration of 2.5 mM. Quench solution contained 600 mM EDTA (pH 8.0). The MDH enzymatic assay stock consisted of 20 mM sodium mesoxalate and 2.4 mM NADH in reaction buffer (50 mM Tris-HCl, pH 7.4, 50 mM KC1, and 1 mM DTT).
(§3) Assay Protocol: First, 30 μL aliquots of the GroEL/ES-dMDH or HSP60/10-dMDH binary complex stocks were dispensed into clear, 384-well polystyrene plates. Next, 0.5 μL of the compound stocks (10 mM to 4.6 μM, 3-fold dilutions series in DMSO) were added by pin-transfer (V&P Scientific). The chaperonin-mediated refolding cycles were initiated by addition of 20 IA of ATP stock (reagent concentrations during refolding cycle: 50 nM GroEL or HSP60, 60 nM GroES or HSP10, 12 nM dMDH, 1 mM ATP, and compounds of 100 μM to 46 nM, 3-fold dilution series). The refolding reactions were incubated at 37° C. The incubation time was determined from refolding time-course control experiments until they reached ˜90% completion of refolding cycle — generally ˜20-40 min for GroEL/ES, and ˜40-60 min for HSP60/10). Next, the assay was quenched by addition of 10 μL of the EDTA to final concentration of 100 mM. […] A340 nm measurements were recorded at 0.5 minutes (start point) and at successive time points until the amount of NADH consumed reached ˜90% (end point, generally between 20-35 minutes). The differences between the start and end point A340 values were used to calculate the % inhibition of the GroEL/ES or HSP60/10 machinery by the compounds. IC50 values for the test compounds were obtained by plotting the % inhibition results in GraphPad Prism 6 and analyzing by non-linear regression using the log (inhibitor) vs. response (variable slope) equation. Results presented represent the averages of IC50 values obtained from at least quadriplicate (duplicate of duplicate) replicates. For results, see Tables 1, 2, and 3.

[1] = HEK 293 kidney cell viability / cytotoxicity assay (Alamar Blue); assay type: cell-based; conditions: human, 48 h incubation, Alamar Blue, read-out: HEK 293 Kidney Cell Viability CC50
Description: Evaluating compound effects on kidney cell viability.
HEK 293 cells were maintained in MEM medium (Corning Cellgro, 10-009 CV) supplemented with 10% FBS (Sigma, F2242). […] Cells at 80% confluence were harvested and diluted in growth medium, then 45 μL of the HEK 293 cells (1,500 cells/well) were dispensed per well, and plates were sealed with “Breathe Easy” oxygen permeable membranes (Diversified Biotech) and incubated at 37° C., 5% CO2, for 24 h. […] Plates were sealed with “Breathe Easy” oxygen permeable membranes and incubated for an additional 48 h at 37° C. and 5% CO2. The Alamar Blue reporter reagents were then added to a final concentration of 10%, the plates incubated at 37° C. and 5% CO2, and sample fluorescence (535 nm excitation, 590 nm emission) was read using a Molecular Devices FlexStation II 384-well plate reader (readings taken between 4-24 h of incubation so as to achieve signals in the 30-60% range for conversion of resazurin to resorufin). Cell viability was calculated as per vendor instructions (Thermo Fisher—Alamar Blue cell viability assay manual).

HSP60/10 = molecular target: T2, HSP60/10 (Homo sapiens, UniProt P10809); test: HSP60/10-mediated dMDH refolding assay; assay type: biochemical; conditions: 37° C., 1 mM ATP, read-out: Biochemical Assay IC50 HSP60/10-dMDH Refolding
T2 construct: octa-Histidine (His8) tag, TEV-cleavable (N, cleaved yes); made in house; host or cells: HSP60 in Rosetta 2 (DE3) E. coli; HSP10 in Rosetta 2 (DE3) pLysS
Description: as §1, §2, §3

T1 sequence (P0A6F5 2-548): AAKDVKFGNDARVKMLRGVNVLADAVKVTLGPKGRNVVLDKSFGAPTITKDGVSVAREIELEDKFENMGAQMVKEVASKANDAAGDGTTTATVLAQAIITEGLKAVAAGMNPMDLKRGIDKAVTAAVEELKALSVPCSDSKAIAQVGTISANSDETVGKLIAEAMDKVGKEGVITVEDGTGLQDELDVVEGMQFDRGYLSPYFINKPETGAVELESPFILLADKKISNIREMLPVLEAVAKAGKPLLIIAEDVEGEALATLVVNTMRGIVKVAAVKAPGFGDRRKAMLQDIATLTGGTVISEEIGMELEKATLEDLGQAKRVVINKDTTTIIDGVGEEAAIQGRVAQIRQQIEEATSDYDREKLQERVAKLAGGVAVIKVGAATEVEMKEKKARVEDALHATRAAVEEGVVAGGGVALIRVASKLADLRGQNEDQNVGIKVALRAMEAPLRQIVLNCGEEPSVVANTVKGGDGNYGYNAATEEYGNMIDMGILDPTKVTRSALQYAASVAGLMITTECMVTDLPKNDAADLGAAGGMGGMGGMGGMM
T2 sequence (P10809 27-573): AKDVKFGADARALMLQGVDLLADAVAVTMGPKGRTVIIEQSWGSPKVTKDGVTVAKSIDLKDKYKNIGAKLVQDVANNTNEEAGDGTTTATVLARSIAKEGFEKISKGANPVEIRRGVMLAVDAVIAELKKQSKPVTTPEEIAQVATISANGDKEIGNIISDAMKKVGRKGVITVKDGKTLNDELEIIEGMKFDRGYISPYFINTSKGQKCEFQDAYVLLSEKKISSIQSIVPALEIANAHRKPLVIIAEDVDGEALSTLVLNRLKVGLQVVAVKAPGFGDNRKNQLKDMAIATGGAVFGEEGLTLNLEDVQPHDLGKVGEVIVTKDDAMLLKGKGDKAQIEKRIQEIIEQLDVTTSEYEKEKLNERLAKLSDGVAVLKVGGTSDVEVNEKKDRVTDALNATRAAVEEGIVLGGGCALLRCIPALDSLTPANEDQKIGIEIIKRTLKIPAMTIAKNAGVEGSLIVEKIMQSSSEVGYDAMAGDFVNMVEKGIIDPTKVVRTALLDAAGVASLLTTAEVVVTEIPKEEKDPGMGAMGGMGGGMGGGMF

| SMILES | IC50 (GroEL/ES) | CC50 at 48 h ([1]; HEK 293 kidney cells, Table 3) | IC50 (HSP60/10; Table 3) | IC50 (HSP60/10; Table 2) | CC50 at 48 h ([1]; HEK 293 kidney cells, Table 2) | also measured |
| --- | --- | --- | --- | --- | --- | --- |
| COc1ccc(Cl)cc1C(=O)Nc1ccccc1 [Compound 116, 5-chloro-2-methoxy-N-phenylbenzamide] | > 100 µM | > 100 µM | > 100 µM | – | – | – |
| COc1ccc(Br)cc1C(=O)Nc1cc(Cl)c(C(C#N)c2ccc(Cl)cc2)cc1C (stereo not drawn) [Compound 49, 5-bromo-N-(5-chloro-4-((4-chlorophenyl)(cyano)methyl)-2-methylphenyl)-2-methoxybenzamide] | 71 µM | – | – | > 100 µM | – | CC50 at 48 h ([1]; Table 2): > 100 µM |
| COc1ccc(Cl)cc1C(=O)Nc1ccc(Sc2nc3ccccc3s2)c(Cl)c1 [Compound 94, N-(4-(benzo[d]thiazol-2-ylthio)-3-chlorophenyl)-5-chloro-2-methoxybenzamide] | 61 µM | > 100 µM | > 100 µM | – | – | – |
| COc1ccc(Cl)cc1C(=O)Nc1ccc(NC(C)=O)cc1 [Compound 104, N-(4-acetamidophenyl)-5-chloro-2-methoxybenzamide] | > 100 µM | > 100 µM | > 100 µM | – | – | – |
| Cc1cc(C(C#N)c2ccc(Cl)cc2)c(Cl)cc1NC(=O)c1ccccc1O (stereo not drawn) [Compound 64, N-(5-chloro-4-((4-chlorophenyl)(cyano)methyl)-2-methylphenyl)-2-hydroxybenzamide] | 33 µM | – | – | 50 µM | – | CC50 at 48 h ([1]; Table 2): 26 µM |
| O=C(Nc1ccc(Oc2ccc(Cl)cc2)c(Cl)c1)c1cc(Cl)ccc1O [Compound 87, 5-chloro-N-(3-chloro-4-(4-chlorophenoxy)phenyl)-2-hydroxybenzamide] | 30 µM | – | 9.5 µM | – | – | CC50 at 48 h ([1]; Table 3): 10 µM |
| N#CCc1ccc(NC(=O)c2cc(Cl)ccc2O)cc1 [Compound 111, 5-chloro-N-(4-(cyanomethyl)phenyl)-2-hydroxybenzamide] | > 100 µM | 19 µM | > 100 µM | – | – | – |
| Cc1cc(C(C#N)c2ccc(Cl)cc2)c(Cl)cc1NC(=O)c1ccc(N)cc1 (stereo not drawn) [Compound 72, 4-amino-N-(5-chloro-4-((4-chlorophenyl)(cyano)methyl)-2-methylphenyl)benzamide] | 47 µM | – | – | 73 µM | 53 µM | – |
| Cc1cc(C(C#N)c2ccc(Cl)cc2)c(Cl)cc1NC(=O)c1cccc([N+](=O)[O-])c1 (stereo not drawn) [Compound 68, N-(5-chloro-4-((4-chlorophenyl)(cyano)methyl)-2-methylphenyl)-3-nitrobenzamide] | 43 µM | – | – | > 100 µM | > 100 µM | – |
| COc1ccc(NC(=O)c2cc(Cl)ccc2OC)cc1 [Compound 112, 5-chloro-2-methoxy-N-(4-methoxyphenyl)benzamide] | > 100 µM | > 100 µM | > 100 µM | – | – | – |
| Cc1cc(C(C#N)c2ccc(Cl)cc2)c(Cl)cc1NC(=O)c1cc(Cl)cc(Cl)c1O (stereo not drawn) [Compound 52, 3,5-dichloro-N-(5-chloro-4-((4-chlorophenyl)(cyano)methyl)-2-methylphenyl)-2-hydroxybenzamide] | 3.7 µM | – | – | 5.2 µM | 44 µM | – |
| COc1ccc(Cl)cc1C(=O)Nc1ccc(Oc2ccccc2)cc1 [Compound 92, 5-chloro-2-methoxy-N-(4-phenoxyphenyl)benzamide] | > 100 µM | > 100 µM | > 100 µM | – | – | – |
| O=C(Nc1cc(Cl)cc(Cl)c1O)c1c(O)c(Cl)cc(Cl)c1Cl [Oxyclosanide, reference compound] | 45 µM | – | – | – | – | CC50 at 48 h ([1]; HEK 293 kidney cells, Table 1): 30 µM; IC50 (HSP60/10; Table 1): 28 µM |
| O=C(Nc1ccc(OCc2ccccc2)cc1)c1cc(Cl)ccc1O [Compound 103, N-(4-(benzyloxy)phenyl)-5-chloro-2-hydroxybenzamide] | 44 µM | > 100 µM | > 100 µM | – | – | – |
| COc1c(Cl)cccc1C(=O)Nc1cc(Cl)c(C(C#N)c2ccc(Cl)cc2)cc1C (stereo not drawn) [Compound 53, 3-chloro-N-(5-chloro-4-((4-chlorophenyl)(cyano)methyl)-2-methylphenyl)-2-methoxybenzamide] | 81 µM | – | – | > 100 µM | > 100 µM | – |
| COc1ccc(Cl)cc1C(=O)Nc1ccc(Oc2ccccc2)c(Cl)c1 [Compound 90, 5-chloro-N-(3-chloro-4-phenoxyphenyl)-2-methoxybenzamide] | > 100 µM | > 100 µM | > 100 µM | – | – | – |
| Cc1cc(C(C#N)c2ccc(Cl)cc2)c(Cl)cc1NC(=O)c1ccccc1F (stereo not drawn) [Compound 79, N-(5-chloro-4-((4-chlorophenyl)(cyano)methyl)-2-methylphenyl)-2-fluorobenzamide] | 89 µM | – | – | > 100 µM | 85 µM | – |
| COc1c(Br)cc(Br)cc1C(=O)Nc1cc(Cl)c(C(C#N)c2ccc(Cl)cc2)cc1C (stereo not drawn) [Compound 45, 3,5-dibromo-N-(5-chloro-4-((4-chlorophenyl)(cyano)methyl)-2-methylphenyl)-2-methoxybenzamide] | 30 µM | – | – | > 100 µM | – | CC50 at 48 h ([1]; Table 2): 66 µM |
| Cc1cc(C(C#N)c2ccc(Cl)cc2)c(Cl)cc1NC(=O)c1ccc([N+](=O)[O-])cc1 (stereo not drawn) [Compound 69, N-(5-chloro-4-((4-chlorophenyl)(cyano)methyl)-2-methylphenyl)-4-nitrobenzamide] | 37 µM | – | – | > 100 µM | > 100 µM | – |
| COc1ccc(Cl)cc1C(=O)Nc1ccc(OCc2ccccc2)cc1 [Compound 102, N-(4-(benzyloxy)phenyl)-5-chloro-2-methoxybenzamide] | > 100 µM | > 100 µM | > 100 µM | – | – | – |
| Cc1cc(C(C#N)c2ccc(Cl)cc2)c(Cl)cc1NC(=O)c1cccc(O)c1 (stereo not drawn) [Compound 65, N-(5-chloro-4-((4-chlorophenyl)(cyano)methyl)-2-methylphenyl)-3-hydroxybenzamide] | 55 µM | – | – | 33 µM | 44 µM | – |
| COc1c(Br)cccc1C(=O)Nc1cc(Cl)c(C(C#N)c2ccc(Cl)cc2)cc1C (stereo not drawn) [Compound 47, 3-bromo-N-(5-chloro-4-((4-chlorophenyl)(cyano)methyl)-2-methylphenyl)-2-methoxybenzamide] | 49 µM | – | – | > 100 µM | – | CC50 at 48 h ([1]; Table 2): > 100 µM |
